The values that follow come from BindingDB's records for doi:10.1074/jbc.M809430200 (The Scripps Research Institute, 2009).

Experiment [1] addresses Mitogen-activated protein kinase 14 (p38α) (Homo sapiens) (UniProt Q16539). Nature of the experiment: Homogeneous time-resolved fluorescence assay is an enzyme inhibition studies that were performed in 384-well polystyrene homogeneous time-resolved fluorescence plates (grainier). As to conditions: pH 7.
Experiment [2] has as its target Mitogen-activated protein kinase 10 (Homo sapiens, UniProt P53779). The experiment in a line: Fluorescence Assay. To be noted: pH 7; 22 °C. The procedure: (§1) Homogeneous time-resolved fluorescence assay is an enzyme inhibition studies that were performed in 384-well polystyrene homogeneous time-resolved fluorescence plates (grainier).
The target of experiment [3] is Mitogen-activated protein kinase 8 (Homo sapiens, UniProt P45983). The experiment in a line: Fluorescence Assay. As to conditions: pH 7; 22 °C. As to the method: as §1
Chain of Mitogen-activated protein kinase 8 (P45983 whole entry): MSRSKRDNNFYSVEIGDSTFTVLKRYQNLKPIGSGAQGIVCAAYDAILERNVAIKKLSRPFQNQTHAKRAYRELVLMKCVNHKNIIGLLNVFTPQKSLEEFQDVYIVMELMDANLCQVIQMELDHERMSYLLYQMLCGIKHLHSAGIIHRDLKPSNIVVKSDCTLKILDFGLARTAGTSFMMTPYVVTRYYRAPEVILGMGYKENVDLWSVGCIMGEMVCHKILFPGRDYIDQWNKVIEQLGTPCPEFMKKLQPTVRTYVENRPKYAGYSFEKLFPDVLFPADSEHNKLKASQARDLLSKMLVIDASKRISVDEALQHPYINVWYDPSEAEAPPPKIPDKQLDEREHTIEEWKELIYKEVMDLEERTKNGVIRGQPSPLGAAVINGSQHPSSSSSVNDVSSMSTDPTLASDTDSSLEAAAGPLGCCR

Chain of Mitogen-activated protein kinase 10 (P53779 whole entry): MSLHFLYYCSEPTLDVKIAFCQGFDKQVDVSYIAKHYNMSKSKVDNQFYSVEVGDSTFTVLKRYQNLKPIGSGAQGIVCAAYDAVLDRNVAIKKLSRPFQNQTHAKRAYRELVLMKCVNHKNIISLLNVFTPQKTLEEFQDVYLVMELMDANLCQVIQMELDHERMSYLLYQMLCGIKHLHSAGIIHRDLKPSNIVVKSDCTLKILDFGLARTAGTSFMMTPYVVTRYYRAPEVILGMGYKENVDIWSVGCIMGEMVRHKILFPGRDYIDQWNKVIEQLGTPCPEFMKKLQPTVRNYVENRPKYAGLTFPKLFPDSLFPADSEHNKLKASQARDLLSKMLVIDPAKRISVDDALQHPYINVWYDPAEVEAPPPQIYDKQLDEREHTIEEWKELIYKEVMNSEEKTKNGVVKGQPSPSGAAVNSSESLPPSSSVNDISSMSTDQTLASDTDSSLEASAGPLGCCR

Take `Cc1cncc(NC(=O)c2cc(N(C)C)cc(-n3cc(NC(=O)Nc4ccccc4Cl)cn3)c2)c1` [Aminopyrazole inhibitor, 4642]: the IC50 (as a rule, the concentration needed to halve the response being measured) was over 20 µM in experiment [1], 2.2 µM in experiment [2] and over 20 µM in experiment [3].
As for `COc1cc(NC(=O)c2cccc(-n3cc(NC(=O)Nc4ccccc4Cl)cn3)c2)cc(OC)c1OC` [Aminopyrazole inhibitor, 3528], the IC50 is over 20 µM in experiment [1], 0.023 µM in experiment [2] and 0.56 µM in experiment [3].
Take `COc1cc(NC(=O)c2cccc(-n3cc(NC(=O)Nc4cccc(C)c4)cn3)c2)cc(OC)c1OC` [Aminopyrazole inhibitor, 3576]: the IC50 in experiment [1] was over 20 µM; in experiment [2], 0.007 µM; in experiment [3] it was 0.17 µM.
Consider `Cc1cncc(NC(=O)c2cc(N3CCOCC3)cc(-n3cc(NC(=O)Nc4ccccc4Cl)cn3)c2)c1` [Aminopyrazole inhibitor, 4643], for which the results for the IC50 in experiment [1], in experiment [2] and in experiment [3] were over 20 µM, 1.5 µM and over 20 µM, respectively.
For the compound `COc1cc(NC(=O)c2cccc(-n3cc(NC(=O)Nc4ccccc4)cn3)c2)cc(OC)c1OC` [Aminopyrazole inhibitor, 3451], the IC50 in experiment [1] came out at 3.7 µM; in experiment [2], 0.025 µM; in experiment [3], 0.4 µM.
Regarding `O=C(Nc1cnn(-c2cccc(C(=O)NCCCN3CCOCC3)c2)c1)Nc1ccccc1Cl` [Aminopyrazole inhibitor, 4276], the IC50 in experiment [1] is over 20 µM; in experiment [2] it was 0.35 µM.
Turning to `COc1cc(NC(=O)c2cccc(-n3cc(NC(=O)Nc4ccc(Cl)cc4)cn3)c2)cc(OC)c1OC` [Aminopyrazole inhibitor, 3583], the IC50 in experiment [2] turned out to be 0.48 µM.
With `Cc1cncc(NC(=O)c2cccc(-n3cc(NC(=O)Nc4ccccc4Cl)cn3)c2)c1` [Aminopyrazole inhibitor, 4326], the IC50 was over 20 µM in experiment [1], 0.055 µM in experiment [2] and 1.4 µM in experiment [3].
On to `Cc1cccc(NC(=O)Nc2cnn(-c3cccc(C(=O)NCCN4CCOCC4)c3)c2)c1` [Aminopyrazole inhibitor, 4018], for which the IC50 in experiment [1] is over 20 µM; in experiment [2], 2.1 µM; in experiment [3] it was over 20 µM.
